Experimental data from PMC11061149, “Protein mimetic 2D FAST rescues alpha synuclein aggregation mediated early and post disease Parkinson’s phenotypes” (Nature Communications, 2024).
Several values for one entry are separate records, joined by “and”; a condition that tells them apart may be missing. Equal values may be shown once.

What was measured:
[1] = molecular target: T1, αS fibers-catalyzed aggregation of αS (Homo sapiens, UniProt P37840); assay: αS fibers-catalyzed aggregation of αS, ThT kinetic assay; assay type: biochemical
T1 construct: made in house; host or cells: E. coli BL21(DE3)

[2] = tested on: HEK cells stably expressing αS-A53T-YFP; assay: HEK cells treated with 5th cycle PMCA samples (ProteoStat, confocal); assay type: cell-based, human
Description: To further validate that NS132 generates fiber incompetent structures from the fibers-catalyzed aggregation, we utilized HEK cells that stably express αS-A53T-YFP[24],[51]–[54]. The solutions of αS aggregation in the absence and presence of NS132 from the 5th cycle of PMCA (2 μM in monomeric αS, ±NS132) were introduced to the HEK cells in the presence of Lipofectamine 3000 for 24 h. In contrast to the control (no fibers) (Fig. 3i, control), we observed a significant number of inclusions of αS-A53T-YFP protein in the presence of αS fibers (Fig. 3i, αS, white arrows). […] In contrast, in the presence of the PMCA assay sample from the 5th cycle ( + NS132), there was a significant reduction in the number of αS-A53T-YFP inclusions (Fig. 3i, +NS132). The ProteoStat intensity of inclusions in HEK cells treated with the PMCA sample from cycle five was ~2–3 fold higher than the control condition (no fibers) (Fig. 3j, black). […]
This assay was performed based on a previous protocol with slight modifications. […] The resulting cell pellets were then homogenized, transferred into an autoclaved 1.7 mL microcentrifuge tube, and counted to normalize the data. […] The cell solution was homogenized and equally aliquoted into the desired number of wells in a Costar 96-well flat black plate and fluorescence was measured (λex = 550 nm, λem = 600 nm) on an Infinite M200 Pro Plate Reader. […]

[3] = tested on: NL5901 worms (αS-YFP in body wall muscle cells); assay: Confocal counting of αS-YFP inclusions in NL5901 worms; assay type: in vivo, C. elegans; conditions: for number of inclusions in NL5901, individual trials: 50 µM ligand; for number of inclusions: 50 μM ligand
Description: In NL5901 strain, αS-YFP is expressed in the muscle cells of worms. The aggregates of αS-YFP are visible from day 4 and the maximum number of αS-YFP aggregates are visible round day 8 and day 9. The standard worm conditions were used for the culturing of various worm strains. […] The cultures of OP50 were prepared by incubating 50 mL of LB medium with OP50 18 h at 37 °C and the final OD value was adjusted to 0.5 at 600 nm. The NGM plates were prepared by treating them with 350 µL OP50 and leaving the plates at 20 °C for 3 days. […] The NGM plates (with NGM media) were used for the treatment of different worm strains with ligands. […] The NGM plates treated with ligands were prepared and used within 24 h. We used these plates to treat various disease strains for different assays. This experiment was performed based on previously described protocols with slight modifications[24],[65],[88]. […] On day two, the worms were divided into two batches. […] On day four, the ligand (10–50 µM, stock conc. = 10 mM in DMSO, DMSO from 0.1–0.5%, v/v) was added again to PLATE 3. […] For each condition, six biological replicates were performed and at least 10 technical replicates were used for each biological replicate. […] (n = 6 independent experiments and each n consisted of a minimum of ten technical replicates).

ThT fluorescence intensity, Average ([1]; 100 µM αS + αS fibers (20% monomer conc.) + equimolar ligand, time 0 hr): 181.667 | effect on αS fibers-catalyzed aggregation of αS, in words ([1]; 100 μM αS, preformed αS fibers 20%, equimolar ligand): wholly suppressed | ThT fluorescence intensity, Average ([1]; seeded, equimolar ligand, time 3 hr): 168 | ThT fluorescence intensity, Average ([1]; seeded, equimolar ligand, time 6 hr): 160.333 | ThT fluorescence intensity, Average ([1]; seeded, equimolar ligand, time 9 hr): 164 | ThT fluorescence intensity, Average ([1]; seeded, equimolar ligand, time 12 hr): 200.667 | ThT fluorescence intensity, Average ([1]; seeded, equimolar ligand, time 24 hr): 255 | ThT fluorescence intensity, Average ([1]; seeded, equimolar ligand, time 36 hr): 243.333 | ThT fluorescence intensity, Average ([1]; seeded, equimolar ligand, time 48 hr): 299.333
Compound: Cc1ccc(NC(=O)c2ccc(NC(=O)c3ccc([N+](=O)[O-])c(NCCc4c[nH]c5ccccc45)n3)c(NCC3CCCCC3)n2)c(OCC(=O)O)n1 [NS132]
ProteoStat dye intensity (raw), individual experiments ([2]; HEK cells + fifth cycle PMCA sample (2 μM αS in monomer) with NS132): 1001 and 1176 and 997 and 1009 and 1031 and 978 and 1091 and 1123 and 1010 and 1092 and 1179 | ProteoStat intensity of inclusions, in words ([2]; PMCA sample from cycle five in the presence of NS132): significantly lower | number of inclusions in NL5901, individual trials ([3]; Day 8): 3 and 2 and 6 and 5 and 9 and 4 and 7 and 8 | number of inclusions in NL5901, individual trials ([3]; Day 9): 5 and 6 and 7 and 8 and 11 and 10 and 3 and 9 and 4 | number of inclusions ([3]; day eight): ~ 5 inclusions/worm | number of inclusions ([3]; day nine): ~ 6.6 inclusions/worm
